IC50 data for 86 molecules are collected here from PubChem BioAssay AID489022 (Sanford-Burnham Center for Chemical Genomics, 2010).

Each structure is given as a SMILES string. pIC50: −log10 of the molar value. “And” between values parts separate entries of the source, which are not always exact repeats. Equal values may be shown once. The source made the active and inactive calls. No rule for the calls is given here. Bounds are passed on as bounds.

This assay concerns HEK-293T NF-kB luciferase reporter, luminescence counterscreen. Put plainly: NF-kB reporter suppression in HEK-293T cells – luminescence, B-cell screen hits, counter-screen for BCR NF-kB inhibitor project, dose response (AID 489022).

By IC50 is commonly meant the concentration at which inhibition is half-maximal. The term pIC50 denotes the IC50 on a negative log10 scale, so that one unit is a factor of ten.

For the molecule `COC(=O)C(C)Oc1cc(C)cc2oc(=O)c3c(c12)CCC3` (stereo unspecified), the IC50 was 28.6 µM (inactive). With `CCc1sc(C(=O)Nc2cccc(-n3cnnn3)c2)cc1C`, the IC50 is > 80 µM (inactive). As to `COc1ccc(/C=C2\SC(=S)N(CCCC(=O)Nc3ccc(O)cc3)C2=O)cc1`, the IC50 is > 80 µM (inactive). On to `Cc1[nH]c2ccccc2c1/C=N/Nc1nc(Nc2ccc(F)cc2)nc(N2CCOCC2)n1`, for which the IC50 was > 80 µM (inactive). Take `CCCC(=O)Nc1ccc(Sc2ccc([N+](=O)[O-])cc2)cc1`: the pIC50 was 5.08. As to `O=C(C1CCC1)N1CCN(S(=O)(=O)c2ccc([N+](=O)[O-])cc2)CC1`, the IC50 is > 80 µM (inactive).

As to `COc1ccc(/C=C2/SC(=S)N(CCCC(=O)Nc3ccc(O)cc3)C2=O)cc1OC`, the IC50 is > 80 µM (inactive). `Cc1ccc(S(=O)(=O)CC2CSc3nc4ccccc4n32)cc1` (stereo unspecified): the negative logarithm of the IC50 (pIC50) is 6.39. `Cc1ccc(-c2nn3c(C)nnc3c3ccccc23)cc1S(=O)(=O)NCc1ccco1`: the pIC50 is 4.81.

For the molecule `Cc1ccc(C(=O)N2CCCC(c3ccc(Cl)cc3)=N2)cc1`, the IC50 is 36.5 µM (inactive).

For the molecule `CC(C)(C)c1ccc(-c2cc(N)n[nH]2)cc1`, the IC50 is > 80 µM (inactive).

Consider `CCc1ccc(-c2nnn(CCC(=O)OC)n2)cc1`, for which the pIC50 is 6.22. On the same count and under the same terms, next, `Cn1nc(-c2ccc(Cl)cc2)c2cc(C(=O)N3CCCC3)sc21`: 5.43.

With `CCOc1ccc(/C=C2\SC(=S)N(CCC(=O)Nc3cccc(C(=O)O)c3)C2=O)cc1`, the IC50 was > 80 µM (inactive). On to `COc1ccc(OC)c(S(=O)(=O)Nc2ccc(-c3ccc4nnc(C)n4n3)cc2)c1`, for which the IC50 is 32.2 µM (inactive). For the molecule `COc1ccc(/C=C2\SC(=S)N(CCC(=O)Nc3cccc(O)c3)C2=O)cc1`, the IC50 was > 80 µM (inactive). With `CCOC(=O)N1CCN(CC(=O)Nc2ccc([N+](=O)[O-])cc2C(=O)Nc2ccccc2F)CC1`, the IC50 is 29.4 µM (inactive). `O=S(=O)(NCc1ccncc1)c1ccc(Br)s1`: the negative logarithm of the IC50 (pIC50) is 6.07. Take `COc1ccc(C(=O)n2nc(-c3ccc(Cl)cc3)nc2N)cc1OC`: the IC50 was > 80 µM (inactive). As for `COc1ccc(C(=O)N/N=C/c2sc(N3CCOCC3)nc2-c2ccccc2)cc1OC`, the pIC50 was 4.85.

As to `Cc1cc(=O)[nH]c2c(C)cc(S(=O)(=O)N3CCCCC3)cc12`, the IC50 was > 80 µM (inactive).

Turning to `COc1cccc(Cn2nnc(C(=O)Nc3cc(Cl)ccc3OC)c2N)c1`, the IC50 is > 80 µM (inactive).

In the case of `Cc1ccc(-c2cc(C(=O)NCCCN3CCOCC3)no2)cc1`, the IC50 was > 80 µM (inactive). `COc1ccc(/C=N/OCC(=O)NC(c2ccccc2)c2ccccc2)cc1OC`: the pIC50 was 6.14. Regarding `C[C@H]1CCC/C=C/[C@@H]2C[C@H](O)C[C@H]2[C@H](O)/C=C/C(=O)O1`, the pIC50 is 6.38 and 6.28. `Cn1nnnc1Sc1ncnc2scc(Br)c12`: the pIC50 was 5.37.

With `N=c1ccn(Cc2ccccc2Cl)cc1`, the IC50 is 21.3 µM (inactive). Same read-out and setting: next, `Cc1cc(C)cc(OCc2nnc(SCC(=O)c3ccccc3)o2)c1`: 23.7 µM (inactive). On to `COc1ccc(-c2noc(CCCC(=O)O)n2)cc1`, for which the pIC50 was 5.40.

As to `Cc1ccc(-c2cn(-c3ccccc3)c3[n+]2CCCS3)cc1`, the pIC50 is 5.31. For the molecule `Oc1cc(O)cc(-c2cc3ccc(O)cc3o2)c1`, the IC50 was > 80 µM (inactive). Turning to `O=C(O)CCSc1nc2ccccc2s1`, the pIC50 is 5.68.

On to `COc1ccc(-c2n(Cc3ccccc3)c3ccccc3[n+]2Cc2ccccc2)cc1`, for which the IC50 was 24.2 µM (inactive). For `CC(=C\c1ccccc1)/C=C1/SC(=O)N(CCCC(=O)Nc2ccc(C(=O)O)cc2)C1=O`, the IC50 was > 80 µM (inactive). In the case of `Cc1c(CCC(=O)NCCCn2ccnc2)c(=O)oc2c(C)c3oc4c(c3cc12)CCCC4`, the pIC50 was 5.18.

With `CC(C)(C)c1ccc(-c2noc(CCC(=O)N3CCOCC3)n2)cc1`, the IC50 is 35 µM (inactive). Take `O=C(CCCN1C(=O)/C(=C/c2ccccc2Cl)SC1=S)Nc1ccccn1`: the IC50 is 23.7 µM (inactive). As for `Cc1nn(C(C)(C)C)c(OC(=O)c2ccc(Br)o2)c1Sc1ccccc1`, the IC50 was 53.8 µM (inactive).

With `C=CCOc1ccccc1CN(C(=O)CCl)c1ccc2c(c1)OCO2`, the IC50 was 28.1 µM (inactive). Consider `CCOc1ccc(-c2cc(CCCC(=O)NCc3ccco3)no2)cc1`, for which the IC50 is 22.1 µM (inactive).

In the case of `COc1ccc(OC)c(C2CC(=O)Nc3cc(OC)c(OC)c(OC)c32)c1` (stereo unspecified), the IC50 was > 80 µM (inactive). The same measure, in the same setting: next, `C(=N\Nc1nc(Nc2ccccc2)nc(N2CCOCC2)n1)/c1c[nH]c2ccccc12`: 53 µM (inactive). For `CC(C)(C)c1ccc(-c2noc(CCC(=O)NCc3ccco3)n2)cc1`, the pIC50 is 6.31. On to `CCn1c(=O)cc(SCC(=O)N2CCOCC2)c2ccccc21`, for which the IC50 is > 80 µM (inactive). For `COc1cc(/C=N/Nc2nc(Nc3ccccc3)nc(N3CCOCC3)n2)ccc1OC(=O)c1ccco1`, the IC50 was > 80 µM (inactive). Take `C=C(C)[C@@H]1CCC2(C(=O)O)CC[C@]3(C)[C@H](CC[C@@H]4[C@@]5(C)CCC(=O)C(C)(C)[C@@H]5CC[C@]43C)[C@@H]12` (stereo partly specified): the negative logarithm of the IC50 (pIC50) was 5.48. As to `CCCCCCn1c(-c2ccco2)nc2oc3cc(OC)ccc3c(=O)c2c1=O`, the IC50 is > 80 µM (inactive). For `Cc1c(CCC(=O)N2CCC(C(=O)O)CC2)c(=O)oc2cc3oc4c(c3cc12)CCCC4`, the negative-log IC50 (pIC50) is 4.89. With `CCOC(=O)/C=C(\C)Sc1cc(=O)oc2ccccc12`, the pIC50 was 4.98.

For the molecule `CCN(CC(=O)Nc1c(F)cccc1F)C(=O)c1cc(S(=O)(=O)N2CCOCC2)ccc1N1CCCC1`, the IC50 is > 80 µM (inactive). As to `O=C(CN1C(=O)c2ccccc2S1(=O)=O)c1ccc(Cl)cc1Cl`, the negative logarithm of the IC50 (pIC50) was 4.75. Turning to `COc1ccc(OC)c(NC(=O)c2[nH]c(C)c(C(C)=O)c2C)c1`, the IC50 is > 80 µM (inactive). Consider `Nc1ccccc1SCC(=O)Nc1nc(-c2ccccc2)cs1`, for which the negative logarithm of the IC50 (pIC50) was 4.93.

As to `CCC(C)N1C(=O)/C(=C/c2c(NCCCOC(C)C)nc3c(C)cccn3c2=O)SC1=S` (stereo unspecified), the IC50 was > 80 µM (inactive). `O=C(CN1C(=O)c2ccccc2S1(=O)=O)N1CCc2ccccc21`: the pIC50 was 6.05. As to `CCOc1cc(/C=N\Nc2nc(Nc3ccccc3)nc(N3CCOCC3)n2)ccc1OC(=O)c1ccco1`, the IC50 is > 80 µM (inactive). `Cc1noc(C)c1CSc1nc2[nH]ncc2c(=O)n1-c1ccccc1`: the pIC50 was 5.11. For the molecule `COc1ccc(NC(=O)c2cc3c(Cl)nc4ccccc4c3s2)cc1OC`, the IC50 is > 80 µM (inactive). As to `Cn1c(=O)cc(OCCCC(=O)NCc2ccccn2)c2ccccc21`, the IC50 is > 80 µM (inactive). Take `COc1ccc(NC(=O)CN(C)C(=O)C2(c3ccccc3)CCCC2)cc1`: the IC50 is 21.3 µM (inactive).

Take `CC1CCN(CCCNC(=O)COc2cc(=O)n(C)c3ccccc23)CC1`: the IC50 is > 80 µM (inactive). On the same count and under the same terms, next, `COc1ccc(C(C(=O)NC2CCCCC2)N(C(=O)CCl)c2ccc(Cl)cc2)cc1` (stereo unspecified): 25.1 µM (inactive).

For `CCN1C(=O)c2cccc3c(NC(=O)c4cccc(N5C(=O)CCC5=O)c4)ccc1c23`, the IC50 is > 80 µM (inactive). The same measure, in the same setting: to `N=c1c(C(=O)NC2CCCC2)cc2c(=O)n3ccccc3nc2n1CCN1CCOCC1` belongs > 80 µM (inactive). With `CC1=CC(C)(C)Nc2ccc(OC(=O)c3cccnc3)cc21`, the pIC50 was 4.79. `O=C(CCCN1C(=O)/C(=C/c2ccccc2Cl)SC1=S)NNC(=O)c1ccc(Cl)cc1`: the IC50 is > 80 µM (inactive). In the case of `O=C(c1cc2nc(-c3ccccc3)cc(-c3ccccc3)n2n1)N1CCN(C(=O)c2ccco2)CC1`, the negative logarithm of the IC50 (pIC50) is 4.96. Take `CCn1c(=O)cc(OCC(=O)NCc2ccc(C)o2)c2ccccc21`: the IC50 was > 80 µM (inactive). Regarding `COc1ccc(Cc2nc(-c3ccc(NC(=O)c4cccnc4)cc3)no2)cc1`, the IC50 is > 80 µM (inactive). On to `CCCNC(=O)CSCc1nc(-c2ccc(SC)cc2)oc1C`, for which the IC50 is 38.5 µM (inactive). In the case of `Cc1c(CCC(=O)N2CCC[C@H]2C(=O)O)c(=O)oc2cc3oc4c(c3cc12)CCCC4`, the negative-log IC50 (pIC50) was 5.07. For the molecule `CCc1ccc(/C=C2/SC(=S)N(CCC(=O)Nc3cccnc3)C2=O)cc1`, the IC50 was > 80 µM (inactive). Still for that read-out and setting: to `COc1ccc(NC(=O)c2nnn(Cc3cccc(F)c3)c2N)c(OC)c1` belongs > 80 µM (inactive). In the case of `COc1ccc(-c2ccoc2)cc1[C@H]1[C@H]2C=CC[C@@H](C)[C@@H]2C(=O)N1Cc1ccccc1`, the pIC50 was 4.98. In the case of `CC(C)C(=O)Nc1ccc(NC(=O)c2ccc3c(c2)OCO3)cc1`, the IC50 was > 80 µM (inactive). Consider `O=C(N/N=C/c1cccnc1)c1cc(-c2ccccc2OCc2ccccc2)n[nH]1`, for which the pIC50 is 4.90. Regarding `CC(C)Oc1ccc(C(=O)Nc2ccc(N(C)C)cc2)cc1`, the IC50 is > 80 µM (inactive). Still for that read-out and setting: to `CCOc1ccc(-n2c(SCC(=O)Nc3ccc4c(c3)OCCO4)nc3c(c2=O)SCC3)cc1` belongs > 80 µM (inactive). On the same count and under the same terms, to `COc1ccc(-c2ccc(OC)c([C@H]3[C@H]4C=CC[C@@H](C)[C@@H]4C(=O)N3Cc3ccccc3)c2)cc1C` belongs > 80 µM (inactive); to `O=C(Nc1nc2nc(-c3ccccc3)cc(-c3ccccc3)n2n1)c1ccco1`, 23.5 µM (inactive); to `Cc1ccc(CSc2nnc(SCC(=O)N/N=C/C=C/c3ccccc3[N+](=O)[O-])s2)cc1`, 34.8 µM (inactive). With `COC(=O)[C@@]12OC[C@]34[C@H]([C@@H](O)[C@@H]1O)[C@@]1(C)C(=O)C(O[C@@H]5OC(CO)[C@@H](O)[C@@H](O)[C@@H]5O)=C[C@@H](C)[C@@H]1C[C@H]3OC(=O)[C@H](OC(=O)/C=C(\C)C(C)(C)OC(C)=O)[C@@H]24` (stereo partly specified), the negative-log IC50 (pIC50) was 5.49.

On to `COc1ccc(NS(=O)(=O)c2cc(NC(=O)c3cc(=O)c4ccccc4o3)ccc2OC)cc1`, for which the IC50 was > 80 µM (inactive).

Regarding `O=C(Nc1nc(-c2ccccc2)cs1)c1ccccc1NS(=O)(=O)c1ccc(F)cc1`, the negative logarithm of the IC50 (pIC50) was 6.41. With `COc1ccc(-n2c(-c3ccc(Br)cc3)c[n+]3c2CCc2ccccc2-3)cc1`, the negative-log IC50 (pIC50) was 5.40. Take `CCOc1ccc(-c2nnc(SCC(=O)NC3CC3)o2)cc1`: the IC50 was > 80 µM (inactive).
